Assay results from US20240360148A1 (SUVALENT THERAPEUTICS, INC., priority 2021, published 2024).
Like-named read-outs stand apart in the source and are kept apart here.

Experiments:
SAE1 = SAE1 (Homo sapiens (Human), UniProt Q9UBE0+Q9UBT2); assay: SAE High Throughput Biochemical Assay (HTRF), 15 min preincubation; conditions: read-out: 15 min preincubation HTRF IC50 (μM) Ave, SAE1 12.5 nM, ATP 100 μM
In short: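 HTRF detection of SUMO transfer from SUMO-GST to UBC9-His (40 nM each) by SAE1 at 12.5 nM used 100 μM ATP in pH 7.5 HEPES buffer with 10 mM MgCl2 and 0.1% BSA. Enzyme and compound were preincubated 15 min at RT and the reaction ran 45 min, with readings after 2 h and overnight.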

[1] = test system: sumoylation levels (SUMO 2/3 conjugates) in HCT-116 cells; assay: HCT-116 4 Hour Cell Assay (Western, SUMO 2/3 conjugates); type: cell-based; conditions: 4 h treatment, Anti-Sumo 2-3 immunoblot, read-out: HCT-116 Western 4 h IC50 (μM) Ave
Description: This protocol describes the procedures used to assess the effects of compounds of interest on sumoylation levels. Immunoblot of SUMO 2/3 conjugates are performed and IC50 curves are generated upon quantification of sumoylations bands. HCT-116 cells are seeded in a 12 well plate (500,000 cells/well). The following day the cells are treated with compounds of interest (resuspended in DMSO) for 4 hours (11 concentrations with a three-fold dilution; starting concentration 25 μM) Following 4 hours of incubation the cells are washed with ice cold PBS 1×and protein extraction is performed with RIPA buffer supplemented with phosphatases and proteases inhibitors, 25 mM of NEM and 50 units/mL of Benzonase. Samples undergo centrifugation at 13,000 RPM, 4° C., for 10 minutes and the supernatant is collected. Protein quantification is performed using BCA. Non-Reducing Laemmli Buffer is added to the samples. Samples are heated at 75° C. for 10 minutes, and are centrifuged for 3 minutes at 9000 RPM Nupage 4-12% Bis Tris gels and 1× MOPS buffer (Fisher Scientific)+1× NuPAGE Antioxidant (Invitrogen) are used to perform the SDS-PAGE gel electrophoresis (20 to 40 μg of proteins are loaded in the gels). Proteins are then transferred to PVDF membranes and the level of total proteins are measured by staining with Revert Total Protein Stain and the fluorescent bands are acquired using the LI-COR FC (700 nm for 1 min) Membranes are blocked for 5 minutes with Bio-Rad Blocking Buffer and are subsequently incubated over night at 4° C. with Anti-Sumo 2-3 mAb (M BL #M114-3, 1:1000 in Bio-Rad Blocking Buffer, 0.2% Tween 20) Membranes are washed with 1×TBS-T (3 times for 5 minutes) and sumoylation is detected using Li-cor IRDye 800CW Goat anti-Mouse IgG secondary antibody (1:10,000 dilution) upon 1 hour of incubation in blocking buffer with 0.2% Tween 20 and 0.01% SDS. After the incubation, the membranes are washed with 1×TBS-T (3 times for 5 minutes). To visualize the fluorescent bands the membranes are scanned with LI-COR FC (700 nm for 1 min and […] for 2 mins). Sumoylation levels are quantified upon normalization with total protein levels, using the LI-COR Image Studio Lite 5.2 Software.

SAE1, sequence (Q9UBE0 whole entry): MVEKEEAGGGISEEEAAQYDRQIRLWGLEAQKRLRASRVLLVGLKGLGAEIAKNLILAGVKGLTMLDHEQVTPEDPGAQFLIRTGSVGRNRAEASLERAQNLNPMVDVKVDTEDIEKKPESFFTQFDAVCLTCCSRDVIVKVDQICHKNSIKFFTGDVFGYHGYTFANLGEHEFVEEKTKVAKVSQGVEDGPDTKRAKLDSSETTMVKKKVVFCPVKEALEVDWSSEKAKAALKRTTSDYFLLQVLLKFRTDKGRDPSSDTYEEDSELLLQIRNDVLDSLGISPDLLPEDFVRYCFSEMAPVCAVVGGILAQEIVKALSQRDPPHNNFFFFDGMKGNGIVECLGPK
SAE1, sequence (Q9UBT2 whole entry): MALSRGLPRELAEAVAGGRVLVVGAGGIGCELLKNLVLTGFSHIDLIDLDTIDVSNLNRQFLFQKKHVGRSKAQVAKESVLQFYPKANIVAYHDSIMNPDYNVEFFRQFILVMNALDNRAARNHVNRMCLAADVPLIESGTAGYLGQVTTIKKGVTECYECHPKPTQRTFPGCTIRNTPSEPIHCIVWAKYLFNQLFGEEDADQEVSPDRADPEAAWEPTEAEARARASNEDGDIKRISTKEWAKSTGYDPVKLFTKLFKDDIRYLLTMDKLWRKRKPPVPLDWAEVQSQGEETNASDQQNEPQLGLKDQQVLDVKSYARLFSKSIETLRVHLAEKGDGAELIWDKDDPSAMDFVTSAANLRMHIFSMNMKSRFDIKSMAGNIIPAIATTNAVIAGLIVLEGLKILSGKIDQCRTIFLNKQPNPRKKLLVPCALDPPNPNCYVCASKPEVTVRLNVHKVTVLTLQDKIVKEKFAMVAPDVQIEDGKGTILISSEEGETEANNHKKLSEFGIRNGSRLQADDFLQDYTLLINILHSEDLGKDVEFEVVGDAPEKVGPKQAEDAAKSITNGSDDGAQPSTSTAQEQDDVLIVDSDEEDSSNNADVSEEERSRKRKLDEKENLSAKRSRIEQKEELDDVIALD

| Structure (SMILES) | IC50 (SAE1) [µM] | IC50 ([1]; Homo sapiens, HCT-116, 4 h) [µM] | IC50 [1] [µM] |
| --- | --- | --- | --- |
| CCn1cc(-c2ccccc2[C@@H]2CN(C(=O)/C=C/CN3CCCC3C)Cc3sc(C#N)cc32)c(C(F)(F)F)n1 (stereo partly drawn) [Example 31, (4S)-4-(2-(1-ethyl-3-(trifluoromethyl)-1 H-pyrazol-4-yl)phenyl)-6-((E)-4-(2-methylpyrrolidin-1-yl)but-2-enoyl)-4,5,6,7-tetrahydrothieno[2,3-c]pyridine-2-carbonitrile] | 10.2 | 0.918 | – |
| CCn1cc(-c2ccccc2[C@@H]2CN(C(=O)/C=C/CN3CCC(C)C3)Cc3sc(C#N)cc32)c(C(F)(F)F)n1 (some centres unmarked) [Example 32] | 3.9 | 2.05 | – |
| CCn1cc(-c2c(F)cccc2[C@@H]2CN(C(=O)/C=C/CN)Cc3sc(C#N)cc32)c(C(F)(F)F)n1 [Example 51, (S)-6-((E)-4-aminobut-2-enoyl)-4-((S)-2-(1-ethyl-3-(trifluoromethyl)-1 H-pyrazol-4-yl)-3-fluorophenyl)-4,5,6,7-tetrahydrothieno[2,3-c]pyridine-2-carbonitrile] | 1.29 | 0.569 | – |
| [2H]C(C)(C)NC/C=C/C(=O)N1Cc2sc(C#N)cc2[C@H](c2cccc(F)c2-c2cn(CC)nc2C(F)(F)F)C1 [Example 52, (S, E)-4-(2-(1-ethyl-3-(trifluoromethyl)-1 H-pyrazol-4-yl)-3-fluorophenyl)-6-(4-((propan-2-yl-2-d)amino)but-2-enoyl)-4,5,6,7-tetrahydrothieno[2,3-c]pyridine-2-carbonitrile] | 0.69 | 0.308 | – |
| CCn1cc(-c2c(F)cccc2[C@@H]2CN(C(=O)/C=C/[C@@H]3CCN3)Cc3sc(C#N)cc32)c(C(F)(F)F)n1 [Example 53, (S)-6-((E)-3-((S)-azetidin-2-yl)acryloyl)-4-((S)-2-(1-ethyl-3-(trifluoromethyl)-1 H-pyrazol-4-yl)-3-fluorophenyl)-4,5,6,7-tetrahydrothieno[2,3-c]pyridine-2-carbonitrile] | 0.34 | 0.191 | – |
| CCn1cc(-c2c(F)cccc2[C@@H]2CN(C(=O)/C=C/[C@H]3CCN3)Cc3sc(C#N)cc32)c(C(F)(F)F)n1 [Example 54, (S)-6-((E)-3-((R)-azetidin-2-yl)acryloyl)-4-((S)-2-(1-ethyl-3-(trifluoromethyl)-1 H-pyrazol-4-yl)-3-fluorophenyl)-4,5,6,7-tetrahydrothieno[2,3-c]pyridine-2-carbonitrile] | 0.55 | 0.57 | – |
| C=C(C(=O)N1Cc2sc(C#N)cc2[C@H](c2ccccc2-c2cn(CC)nc2C(F)(F)F)C1)C(F)(F)F [Example 60, (S)-4-(2-(1-Ethyl-3-(trifluoromethyl)-1 H pyrazol-4-yl)phenyl)-6-(2-(trifluoromethyl)acryloyl)-4,5,6,7-tetrahydrothieno[2,3-c]pyridine-2-carbonitrile] | 1.36 | 2.59 | – |
| CCn1cc(-c2ccccc2[C@@H]2CN(C(=O)/C=C/[C@@H](N)CO)Cc3sc(C#N)cc32)c(C(F)(F)F)n1 [Example 74, (S)-6-((R, E)-4-Amino-5-hydroxypent-2-enoyl)-4-(2-(1-ethyl-3-(trifluoromethyl)-1 H-pyrazol-4-yl)phenyl)-4,5,6,7-tetrahydrothieno[2,3-c]pyridine-2-carbonitrile] | 2.84 | 2.24 | – |
| CCn1cc(-c2ccccc2[C@@H]2CN(C(=O)/C=C/[C@@H]3CCC(C)(C)N3)Cc3sc(C#N)cc32)c(C(F)(F)F)n1 [Example 79, (S)-6-((E)-3-((S)-5,5-Dimethylpyrrolidin-2-yl)acryloyl)-4-(2-(1-ethyl-3-(trifluoromethyl)-1H pyrazol-4-yl)phenyl)-4,5,6,7-tetrahydrothieno[2,3-c]pyridine-2-carbonitrile] | 1.77 | 0.324 | – |
| CCn1cc(-c2ccccc2[C@@H]2CN(C(=O)/C=C/[C@@H]3C[C@H](C)CN3)Cc3sc(C#N)cc32)c(C(F)(F)F)n1 [Example 80, (S)-4-(2-(1-Ethyl-3-(trifluoromethyl)-1H pyrazol-4-yl)phenyl)-6-((E)-3-((2S,4S)-4-methylpyrrolidin-2-yl)acryloyl)-4,5,6,7-tetrahydrothieno[2,3-c]pyridine-2-carbonitrile] | 1.24 | 0.212 | – |
| CCn1cc(-c2ccccc2[C@@H]2CN(C(=O)/C=C/[C@H]3C[C@@H](C)CN3)Cc3sc(C#N)cc32)c(C(F)(F)F)n1 [Example 81, (S)-4-(2-(1-Ethyl-3-(trifluoromethyl)-1 H-pyrazol-4-yl)phenyl)-6-((E)-3-((2R, 4R)-4-methylpyrrolidin-2-yl)acryloyl)-4,5,6,7-tetrahydrothieno[2,3-c]pyridine-2-carbonitrile] | 2.69 | 0.35 | – |
| CCn1cc(-c2ccccc2[C@@H]2CN(C(=O)/C=C/[C@H]3CC(C)(C)CN3)Cc3sc(C#N)cc32)c(C(F)(F)F)n1 [Example 82, (S)-6-((E)-3-((R)-4,4-Dimethylpyrrolidin-2-yl)acryloyl)-4-(2-(1-ethyl-3-(trifluoromethyl)-1H pyrazol-4-yl)phenyl)-4,5,6,7-tetrahydrothieno[2,3-c]pyridine-2-carbonitrile] | 1.08 | 0.357 | – |
| CCn1cc(-c2ccccc2[C@@H]2CN(C(=O)/C=C/[C@@H]3CC(C)(C)CN3)Cc3sc(C#N)cc32)c(C(F)(F)F)n1 [Example 83, (S)-6-((E)-3-((S)-4,4-Dimethylpyrrolidin-2-yl)acryloyl)-4-(2-(1-ethyl-3-(trifluoromethyl)-1H pyrazol-4-yl)phenyl)-4,5,6,7-tetrahydrothieno[2,3-c]pyridine-2-carbonitrile] | 0.76 | 0.309 | – |
| CCn1cc(-c2ccccc2[C@@H]2CN(C(=O)/C=C/[C@H](C)NC)Cc3sc(C#N)cc32)c(C(F)(F)F)n1 [Example 84, (S)-4-(2-(1-Ethyl-3-(trifluoromethyl)-1 H pyrazol-4-yl)phenyl)-6-((S, E)-4-(methylamino)pent-2-enoyl)-4,5,6,7-tetrahydrothieno[2,3-c]pyridine-2-carbonitrile] | 2.79 | 0.503 | – |
| CCn1cc(-c2c(F)cccc2[C@@H]2CN(C(=O)/C=C/[C@@H]3C[C@H]4C[C@H]4N3)Cc3sc(C#N)cc32)c(C(F)(F)F)n1 [Example 92, (S)-6-((E)-3-((IR,3S,5R)-2-azabicyclo[3.1.0]hexan-3-yl)acryloyl)-4-(2-(1-ethyl-3-(trifluoromethyl)-1H pyrazol-4-yl)-3-fluorophenyl)-4,5,6,7-tetrahydrothieno[2,3-c]pyridine-2-carbonitrile] | 0.4 | – | 0.451 |
| CCn1cc(-c2ccccc2[C@@H]2CN(C(=O)/C=C/CNC3(C)CCOCC3)Cc3sc(C#N)cc32)c(C(F)(F)F)n1 [Example 96, (S,E)-4-(2-(1-Ethyl-3-(trifluoromethyl)-1H-pyrazol-4-yl)phenyl)-6-(4-((4-methyltetrahydro-2H pyran-4-yl)amino)but-2-enoyl)-4,5,6,7-tetrahydrothieno[2,3-c]pyridine-2-carbonitrile] | 2.92 | 2.79 | – |
| CCNC/C=C/C(=O)N1Cc2sc(C#N)cc2[C@H](c2ccccc2-c2cn(CC)nc2C(F)(F)F)C1 [Example 99, (S, E)-4-(2-(1-Ethyl-3-(trifluoromethyl)-1 H-pyrazol-4-yl)phenyl)-6-(4-(ethylamino)but-2-enoyl)-4,5,6,7-tetrahydrothieno[2,3-c]pyridine-2-carbonitrile] | 2.83 | 0.563 | – |
| CCNC/C=C/C(=O)N1Cc2sc(C#N)cc2[C@H](c2cccc(F)c2-c2cn(CC)nc2C(F)(F)F)C1 [Example 100, (S, E)-4-(2-(1-Ethyl-3-(trifluoromethyl)-1 H-pyrazol-4-yl)-3-fluorophenyl)-6-(4-(ethylamino)but-2-enoyl)-4,5,6,7-tetrahydrothieno[2,3-c]pyridine-2-carbonitrile] | 1.38 | 0.174 | – |
| CCn1cc(-c2ccccc2[C@@H]2CN(C(=O)/C=C/CNC(C)(C)C)Cc3sc(C#N)cc32)c(C(F)(F)F)n1 [Example 101, (S, E)-6-(4-(tert-Butylamino)but-2-enoyl)-4-(2-(1-ethyl-3-(trifluoromethyl)-1 H-pyrazol-4-yl)phenyl)-4,5,6,7-tetrahydrothieno[2,3-c]pyridine-2-carbonitrile] | 2.24 | 0.732 | – |
